Measured values taken from patent US8338108B2, “Agent for promoting the production of thioredoxin” (Kyoto University, priority 2006, dated 2012).

System: A549 cells
Experiment: Cytoprotective action to stimulation by cigarette smoke extract (LDH assay)
Type: cell-based, human
Conditions: NAC 0.1 mM, FIG. 2
Experimental: A549 cells were pre-incubated for 16 hours with addition of a test substance (0.01 U/mL) in a DMEM medium wherefrom thiol was removed. Incubation was conducted for 6 hours more after addition of a cigarette smoke extract […] and, after that, LDH in the supernatant liquid of the culture was measured by means of an LDH assay (Roche Diagnostics) and used as an index for viability of the cells. The cigarette smoke extract (CSE) was prepared using a cigarette smoke generator SG-200 (Shibata Kagaku). Thus, smoke of ten cigarettes (Kentucky Research Cigarette 2R4F) which was passed through 10 mL of DMEM wherefrom thiol was removed (10% HEPES was added thereto) was defined as 100% CSE and used after appropriately diluting to the concentrations which were suitable for the experiments.

CC(=O)N[C@@H](CS)C(=O)O [NAC, N-acetylcysteine]
cell injury by CSE, effect of the extract compared with NAC: identical
